Patent US10231456B2, “Methods and compositions for controlling weed infestation and improving grass quality” (BAYER CROPSCIENCE LP, priority 2012, dated 2019)

Key:
dallisgrass = assay: Post-emergence field plot test, % damage to natural dallisgrass infestation; assay type: in vivo, dallisgrass (Paspalum dilatatum); details: with non-ionic surfactant, rates g/ha foram 28.78, TCM 15, halo 69.9; for Trial 1 (16 WAT) % damage: 16 weeks after treatment; for Trial 2 (42 DAA) % damage: 42 days after application; for Trial 3 (48 DAA) % damage: 48 days after application
From the text: Plots approximately 2-4.6 m^2 in size are contain a natural infestion of the weed dallisgrass. Using a CO2 propelled backpack sprayer, thiencarbazone-methyl (TCM), foramsulfuron (foram), and halosulfuron-methyl (halo) are applied on their own and in a combination, by post-emergence method, to the dallisgrass, at the application rates specified. The application rates for each compound and combination are equivalent to each other. All treatments included a non-ionic surfactant. After 42 days, 48 days, and 16 weeks after treatment, the degree of damage to the plants is rated in % damage in comparison to the development of the untreated control.
(§1) The FIGURES denote: • 0%=no effect (like untreated control) • 100%=total destruction.

Tall Fescue = assay: Glasshouse post-emergence test, % damage to Tall Fescue; assay type: in vivo, tall fescue (Schedonorus phoenix/Festuca arundinacea); details: NIS 0.25 % V/V
From the text: Glasshouse plots approximately 1.1 m^2 in size are planted with the weed Tall Fescue. Using a 1 nozzle motorized track sprayer, thiencarbazone-methyl (BYH18636), foramsulfuron (Revolver●), and halosulfuron-methyl (Sedgehammer●) are applied on their own and in combination with each other (a combination of thiencarbazone-methyl, foramsulfuron, and halosulfuron-methyl is SP 102000025052), by post-emergence method, to the weed Tall Fescue, at the application rates specified. The application rates for each compound and combination are equivalent to each other.
After 14 and 27 days after treatment, the degree of damage to the plants is rated in % damage in comparison to the development of the untreated control.
as §1

[1] = higher rates: TCM 22.2, foram 44.37, halo 69 G A/HA (blend 135.6 G A/HA, 3.2 OZ/A)
[2] = lower rates: TCM 14.58, foram 29.12, halo 45.3 G A/HA (blend 89 G A/HA, 2.1 OZ/A)

| SMILES | Trial 1 (16 WAT) % damage (dallisgrass) | Trial 2 (42 DAA) % damage (dallisgrass) | Trial 3 (48 DAA) % damage (dallisgrass) | 0 DAA % damage (Tall Fescue; [1]) | 0 DAA % damage (Tall Fescue; [2]) | 14 DAA % damage (Tall Fescue; [1]) | 14 DAA % damage (Tall Fescue; [2]) | 27 DAA % damage (Tall Fescue; [1]) | 27 DAA % damage (Tall Fescue; [2]) |
| --- | --- | --- | --- | --- | --- | --- | --- | --- | --- |
| COc1cc(OC)nc(NC(=O)NS(=O)(=O)c2cc(NC=O)ccc2C(=O)N(C)C)n1 [foramsulfuron] | 31.5% | 76.7% | 35% |  |  |  |  |  |  |
| COC(=O)c1csc(C)c1S(=O)(=O)NC(=O)n1nc(OC)n(C)c1=O [thiencarbazone-methyl] | 85.25% | 65% | 51% | 0% | 0% | 42.5% | 26.3% | 75% | 52.5% |
| COC(=O)c1c(Cl)nn(C)c1S(=O)(=O)NC(=O)Nc1nc(OC)cc(OC)n1 [halosulfuron-methyl] | 0% | 0% | −9% |  |  |  |  |  |  |
